Data published in ChEMBL document CHEMBL1151680, “Cytotoxic amides from the octocoral Telesto riisei” (1996).
In brackets after ≈: the same amount, converted by molar mass.

System: P388
Assay: Cytotoxicity against mouse P388 cells
Type: functional
Details: read-out: ED50 (the source's name)

CC(=O)OCC(C)CCC[C@@H](C)[C@H]1CC[C@H]2[C@@H]3C[C@@H](O)[C@@]4(O)C[C@@H](O)CC[C@]4(C)[C@H]3CC[C@]12C (some centres not stated)
EC50: 2.4 µg/mL (≈ 5.01 µM)

CC(CO)CCC[C@@H](C)[C@H]1CC[C@H]2[C@@H]3C[C@@H](O)[C@@]4(O)C[C@@H](O)CC[C@]4(C)[C@H]3CC[C@]12C (some centres not stated)
EC50: 1.3 µg/mL (≈ 2.98 µM)
